According to PubChem BioAssay (NCI):
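Interpolation was linear, between the two tested concentrations surrounding the appropriate level; five concentrations were tested over 48 hours in 96-well plates. GI50 = concentration required for 50% inhibition of growth. TGI: total growth inhibition.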

Legend:
Assay in all cases: NCI-60 cell line screen, 48 h
NCI-H522 lung = test system: NCI-H522 lung
SR leukemia = test system: SR leukemia
A498 renal = test system: A498 renal
SNB-19 CNS = test system: SNB-19 CNS
SK-OV-3 ovarian = test system: SK-OV-3 ovarian
TK-10 renal = test system: TK-10 renal
SK-MEL-28 melanoma = test system: SK-MEL-28 melanoma
PC-3 prostate = test system: PC-3 prostate
CCRF-CEM leukemia = test system: CCRF-CEM leukemia
HL-60(TB) leukemia = test system: HL-60(TB) leukemia
T-47D breast = test system: T-47D breast
HS 578T breast = test system: HS 578T breast
RPMI-8226 leukemia = test system: RPMI-8226 leukemia
MOLT-4 leukemia = test system: MOLT-4 leukemia
SN12C renal = test system: SN12C renal
ACHN renal = test system: ACHN renal
CAKI-1 renal = test system: CAKI-1 renal
SF-539 CNS = test system: SF-539 CNS
MDA-MB-231 breast = test system: MDA-MB-231 breast
KM12 colon = test system: KM12 colon
NCI-H226 lung = test system: NCI-H226 lung
NCI-H460 lung = test system: NCI-H460 lung
COLO 205 colon = test system: COLO 205 colon
SW-620 colon = test system: SW-620 colon
MDA-MB-435 = test system: MDA-MB-435
HOP-92 NSCLC = test system: HOP-92 NSCLC
MALME-3M melanoma = test system: MALME-3M melanoma
UACC-62 melanoma = test system: UACC-62 melanoma
SNB-75 CNS = test system: SNB-75 CNS
NCI/ADR-RES ovarian = test system: NCI/ADR-RES ovarian
SK-MEL-5 melanoma = test system: SK-MEL-5 melanoma
MCF7 breast = test system: MCF7 breast
SF-295 CNS = test system: SF-295 CNS
U251 CNS = test system: U251 CNS
EKVX NSCLC = test system: EKVX NSCLC
SF-268 CNS = test system: SF-268 CNS
786-0 renal = test system: 786-0 renal
IGROV1 ovarian = test system: IGROV1 ovarian
K-562 leukemia = test system: K-562 leukemia
HCT-116 colon = test system: HCT-116 colon
DU-145 prostate = test system: DU-145 prostate
HOP-62 NSCLC = test system: HOP-62 NSCLC
HCT-15 colon = test system: HCT-15 colon
SK-MEL-2 melanoma = test system: SK-MEL-2 melanoma
HT29 colon = test system: HT29 colon
UACC-257 melanoma = test system: UACC-257 melanoma
LOX IMVI melanoma = test system: LOX IMVI melanoma
OVCAR-5 ovarian = test system: OVCAR-5 ovarian
A549 NSCLC = test system: A549 NSCLC
NCI-H23 lung = test system: NCI-H23 lung
BT-549 breast = test system: BT-549 breast
HCC-2998 colon = test system: HCC-2998 colon
OVCAR-4 ovarian = test system: OVCAR-4 ovarian
OVCAR-8 ovarian = test system: OVCAR-8 ovarian
UO-31 renal = test system: UO-31 renal
RXF 393 renal = test system: RXF 393 renal

In the case of CCCc1cn2c(/C=N/N=C(N)N)c(-c3cccc([N+](=O)[O-])c3)nc2s1, the TGI (NCI-H522 lung) is reported as 4.47 µM, the TGI (SR leukemia) is reported as 3.89 µM and the TGI (A498 renal) is reported as 33.2 µM. For the same compound, the TGI (SNB-19 CNS) was 4.86 µM, the TGI (SK-OV-3 ovarian) was 5.3 µM and the TGI (TK-10 renal) was 0.405 µM. The TGI (SK-MEL-28 melanoma) was 3.18 µM, the TGI (PC-3 prostate) was 8.19 µM and the TGI (CCRF-CEM leukemia) was 2.32 µM. It also gave a TGI (HL-60(TB) leukemia) of 4.75 µM, a TGI (T-47D breast) of 4.99 µM and a TGI (HS 578T breast) of 7.51 µM. The TGI (RPMI-8226 leukemia) was 4.36 µM, the TGI (MOLT-4 leukemia) was 2.81 µM and the TGI (SN12C renal) was 2.58 µM. The TGI (ACHN renal) was 3.38 µM, the TGI (CAKI-1 renal) was 3.83 µM and the TGI (SF-539 CNS) was 3.15 µM. The TGI (MDA-MB-231 breast) was 3.04 µM, the TGI (KM12 colon) was 3.57 µM and the TGI (NCI-H226 lung) was 3.28 µM. It also gave a TGI (NCI-H460 lung) of 5.37 µM, a TGI (COLO 205 colon) of 4.35 µM and a TGI (SW-620 colon) of 8.42 µM. For the same compound, the TGI (MDA-MB-435) was 3.46 µM, the TGI (HOP-92 NSCLC) was 32.4 µM and the TGI (MALME-3M melanoma) was 2.82 µM. The TGI (UACC-62 melanoma) was 3.15 µM, the TGI (SNB-75 CNS) was 3.1 µM and the TGI (NCI/ADR-RES ovarian) was 10.5 µM. The TGI (SK-MEL-5 melanoma) was 3.9 µM.

Cc1nc2c(c(N3CCCc4ccccc43)n1)CCC2 was tested, and the GI50 (MCF7 breast) was 0.0228 µM, the TGI (MCF7 breast) was > 100 µM and the GI50 (SR leukemia) was < 0.01 µM. For the same compound, the TGI (SR leukemia) was 13.1 µM, the GI50 (SF-295 CNS) was < 0.01 µM and the TGI (SF-295 CNS) was > 100 µM. For the same compound, the GI50 (U251 CNS) was < 0.01 µM, the TGI (U251 CNS) was > 100 µM and the GI50 (A498 renal) was < 0.01 µM. The GI50 (SNB-19 CNS) was < 0.01 µM, the TGI (SNB-19 CNS) was > 100 µM and the GI50 (EKVX NSCLC) was < 0.01 µM. The TGI (EKVX NSCLC) was > 100 µM, the GI50 (SF-268 CNS) was 0.0102 µM and the TGI (SF-268 CNS) was > 100 µM. For the same compound, the GI50 (786-0 renal) was < 0.01 µM, the TGI (786-0 renal) was > 100 µM and the GI50 (SK-OV-3 ovarian) was < 0.01 µM. The TGI (SK-OV-3 ovarian) was > 100 µM, the GI50 (IGROV1 ovarian) was 0.0249 µM and the TGI (IGROV1 ovarian) was > 100 µM. For the same compound, the GI50 (TK-10 renal) was 1.62 µM, the TGI (TK-10 renal) was > 100 µM and the GI50 (SK-MEL-28 melanoma) was 11.7 µM. For the same compound, the TGI (SK-MEL-28 melanoma) was > 100 µM, the GI50 (PC-3 prostate) was < 0.01 µM and the TGI (PC-3 prostate) was > 100 µM. The GI50 (K-562 leukemia) was < 0.01 µM, the TGI (K-562 leukemia) was > 100 µM and the GI50 (CCRF-CEM leukemia) was < 0.01 µM. The TGI (CCRF-CEM leukemia) was > 100 µM, the GI50 (HCT-116 colon) was < 0.01 µM and the TGI (HCT-116 colon) was 20.6 µM. The GI50 (HL-60(TB) leukemia) was < 0.01 µM, the GI50 (T-47D breast) was 30.7 µM and the TGI (T-47D breast) was > 100 µM. For the same compound, the GI50 (HS 578T breast) was < 0.01 µM, the TGI (HS 578T breast) was > 100 µM and the GI50 (DU-145 prostate) was < 0.01 µM. For the same compound, the TGI (DU-145 prostate) was > 100 µM, the GI50 (HOP-62 NSCLC) was < 0.01 µM and the TGI (HOP-62 NSCLC) was > 100 µM. The GI50 (HCT-15 colon) was < 0.01 µM, the TGI (HCT-15 colon) was > 100 µM and the GI50 (SK-MEL-2 melanoma) was 0.016 µM. For the same compound, the TGI (SK-MEL-2 melanoma) was > 100 µM, the GI50 (RPMI-8226 leukemia) was < 0.01 µM and the TGI (RPMI-8226 leukemia) was 3.47 µM. For the same compound, the GI50 (HT29 colon) was < 0.01 µM, the TGI (HT29 colon) was 0.0131 µM and the GI50 (MOLT-4 leukemia) was < 0.01 µM. For the same compound, the TGI (MOLT-4 leukemia) was 3.07 µM, the GI50 (SN12C renal) was 0.0161 µM and the TGI (SN12C renal) was > 100 µM. The GI50 (UACC-257 melanoma) was 12.9 µM, the TGI (UACC-257 melanoma) was > 100 µM and the GI50 (ACHN renal) was < 0.01 µM. The TGI (ACHN renal) was > 100 µM, the GI50 (CAKI-1 renal) was < 0.01 µM and the TGI (CAKI-1 renal) was > 100 µM. The GI50 (MDA-MB-231 breast) was 0.0137 µM, the TGI (MDA-MB-231 breast) was > 100 µM and the GI50 (LOX IMVI melanoma) was < 0.01 µM. For the same compound, the TGI (LOX IMVI melanoma) was > 100 µM, the GI50 (KM12 colon) was < 0.01 µM and the TGI (KM12 colon) was > 100 µM. The GI50 (NCI-H226 lung) was < 0.01 µM, the TGI (NCI-H226 lung) was 40.5 µM and the GI50 (OVCAR-5 ovarian) was 1.7 µM. The TGI (OVCAR-5 ovarian) was > 100 µM, the GI50 (NCI-H460 lung) was < 0.01 µM and the TGI (NCI-H460 lung) was > 100 µM. For the same compound, the GI50 (COLO 205 colon) was < 0.01 µM, the TGI (COLO 205 colon) was 0.0111 µM and the GI50 (SW-620 colon) was < 0.01 µM. For the same compound, the TGI (SW-620 colon) was > 100 µM, the GI50 (A549 NSCLC) was < 0.01 µM and the TGI (A549 NSCLC) was > 100 µM. The GI50 (HOP-92 NSCLC) was 2.42 µM, the TGI (HOP-92 NSCLC) was > 100 µM and the GI50 (NCI-H23 lung) was < 0.01 µM. The TGI (NCI-H23 lung) was > 100 µM, the GI50 (BT-549 breast) was < 0.01 µM and the TGI (BT-549 breast) was 19.6 µM. For the same compound, the GI50 (HCC-2998 colon) was < 0.01 µM, the TGI (HCC-2998 colon) was > 100 µM and the GI50 (OVCAR-4 ovarian) was 0.0406 µM. The TGI (OVCAR-4 ovarian) was > 100 µM, the GI50 (OVCAR-8 ovarian) was 0.0112 µM and the TGI (OVCAR-8 ovarian) was > 100 µM. The GI50 (UO-31 renal) was < 0.01 µM, the TGI (UO-31 renal) was > 100 µM and the GI50 (UACC-62 melanoma) was < 0.01 µM. The TGI (UACC-62 melanoma) was > 100 µM, the GI50 (NCI/ADR-RES ovarian) was < 0.01 µM and the TGI (NCI/ADR-RES ovarian) was 0.364 µM. The GI50 (SK-MEL-5 melanoma) was < 0.01 µM and the TGI (SK-MEL-5 melanoma) was 0.0233 µM.

For N=C(N)c1ccc(-c2ccc(/C=C/c3ccccc3)s2)cc1, the GI50 (A498 renal) was 11.9 µM, the TGI (A498 renal) was 34.1 µM and the GI50 (SF-268 CNS) was 4.28 µM. The TGI (SF-268 CNS) was 39.7 µM, the GI50 (SK-OV-3 ovarian) was 2.07 µM and the TGI (SK-OV-3 ovarian) was 4.9 µM. It also gave a GI50 (SK-MEL-28 melanoma) of 1.65 µM, a TGI (SK-MEL-28 melanoma) of 3.07 µM and a GI50 (RXF 393 renal) of 1.65 µM. It also gave a TGI (RXF 393 renal) of 3.13 µM, a GI50 (HL-60(TB) leukemia) of 2.17 µM and a TGI (HL-60(TB) leukemia) of 4.67 µM. For the same compound, the GI50 (HS 578T breast) was 2.58 µM, the TGI (HS 578T breast) was 7.32 µM and the GI50 (ACHN renal) was 1.67 µM. For the same compound, the TGI (ACHN renal) was 3.03 µM, the GI50 (NCI-H226 lung) was 6.82 µM and the TGI (NCI-H226 lung) was 46 µM. For the same compound, the GI50 (OVCAR-5 ovarian) was 1.47 µM, the TGI (OVCAR-5 ovarian) was 2.87 µM and the GI50 (SK-MEL-5 melanoma) was 2.6 µM. For the same compound, the TGI (SK-MEL-5 melanoma) was 7.12 µM.
